Where a SMILES comes first, the peptide text is derived from it. [ ]: non-standard residue; d: D form. The star is where a group is joined. Trp(5-OH) = N[C@@H](Cc1c[nH]c2ccc(O)cc12)C(=O)O; His(π-Bn) = N[C@@H](Cc1cncn1Cc1ccccc1)C(=O)O; Phe(4-NH2) = Nc1ccc(C[C@H](N)C(=O)O)cc1; 3Pal = N[C@@H](Cc1cccnc1)C(=O)O; Ac6c = NC1(C(=O)O)CCCCC1; Dpg = CCCC(N)(CCC)C(=O)O; Bn = c1ccc(C*)cc1
Target: T1, human glucagon-like peptide-1 receptor (GLP-1R) (Homo sapiens, UniProt P43220)
T1 construct: host or cells: CHO chAMPion cells
Test: Human GLP-1 receptor cell-based assay (flash luminescence, Target Activation phase)
Conditions: CHO chAMPion cells stably co-expressing human GLP-1R, Photina and cAMP-activated calcium channel; agonist activity; normalization by forskolin at 10 μM; ^a) values from single experiment; read-out: EC50 (μM) Target Activation (TA)
From the text: CHO chAMPion cells (Axxam SpA; S. Corazza, Assay Drug Dev. Technol. 2009, 7, 304-307) stably co-expressing the human glucagon-like peptide-1 receptor (GLP-1R), the Ca^2+-sensitive photoprotein PHOTINA® (S. Bovolenta et al., J. Biomol. Screen. 2007, 12, 694-704) and a mutated cAMP-activated calcium ion channel (WO2004/083803 A2) were used to monitor GLP-1R signaling after stimulation with an agonist. Activation of the Gas-coupled GPCR GLP-1R was monitored by measuring the flash luminescence of the Ca^2+-sensitive photoprotein as reporter system with FLIPR^TETRA screening instrumentation (Molecular Devices) upgraded with an ICCD Camera (MDC). For data quality check and data analysis the Genedata SCREENER® software was used.
The reference agonist GLP-1 (glucagon-like peptide-1 amide fragment 7-36) and forskolin were purchased from Sigma (cat. G8147 and F6886, respectively) and prepared according to each ligand's specifications. All handling of ligands were done to ensure proper control throughout the experiments. The steps of the implemented workflow and data analysis are mainly as follows:
Stably transfected chAMPion cells are seeded 10000 c/w in 384 MTP in Dulbecco's MEM/nutrient mix F12 (BioWhittaker cat. BE04-687F/U1; 500 mL) supplemented with sodium pyruvate (BioWhittaker cat. BE13-115E; 5 mL of 100 mM solution), HEPES (BioWhittaker cat. BE17-737E; 6.5 mL of 1M solution), sodium bicarbonate (BioWhittaker cat. BE17-613E; 25 mL of 7.5% solution), fetal bovine serum (Euroclone cat. ECS 0180L; 50 mL), penicillin-streptomycin (BioWhittaker cat. DE17-602E; 5 mL of 100×solution), 1 mg/mL G418 (selection antibiotic for GLP-1R) and 200 μg/mL hygromycin in 25 μL/well for 24 hours. On the day of the experiment, plates are removed from the incubator, freed from the growth medium, equilibrated at room temperature for 1 h, loaded with 30 μl/well of Ca^2+ free Tyrode's buffer containing 20 μM coelentrazine and 500 μM IBMX, and incubated for 4 hours at room temperature.
All compounds were tested at 8 concentrations, starting from 50 μM in quadruplicate, intra-plate (dilution step 1:2.15) to determine EC50 values. After incubation, the volume in all the wells is flattened to 20 αL by aspiration with a CYBIO®-VARIO pipettor. First Injection (10 μL of test compounds in Ca^2+ free Tyrode's buffer, DMSO 0.5% v/v and BSA 0.01%; or 10 μL of reference compounds GLP-1 or forskolin in Ca′ free Tyrode's buffer, DMSO 0.5% v/v and BSA 0.01%) is performed by the FLIPR^TETRA and the kinetic response is optionally monitored over a period of 60 seconds. Incubation for 30 minutes at room temperature is followed by the Second Injection (Tyrode's buffer+10 mM CaCl2)) and the kinetic response is monitored over a period of 60 seconds.
The kinetic response is divided into two distinct phases: monitoring the kinetic response after the First Injection, termed Compound Addition (CA), and monitoring the kinetic response after the Second Injection of 10 mM CaCl2, termed Target Activation (TA). Agonist activity of compounds is evaluated in the Target Activation (TA) phase and it is based on normalization to TA activation by forskolin at 10 μM or GLP-1 at 3.16 nM (EC100)
A good correlation was observed between EC50, data normalized by forskolin and by GLP-1.

T1 sequence (P43220 24-463): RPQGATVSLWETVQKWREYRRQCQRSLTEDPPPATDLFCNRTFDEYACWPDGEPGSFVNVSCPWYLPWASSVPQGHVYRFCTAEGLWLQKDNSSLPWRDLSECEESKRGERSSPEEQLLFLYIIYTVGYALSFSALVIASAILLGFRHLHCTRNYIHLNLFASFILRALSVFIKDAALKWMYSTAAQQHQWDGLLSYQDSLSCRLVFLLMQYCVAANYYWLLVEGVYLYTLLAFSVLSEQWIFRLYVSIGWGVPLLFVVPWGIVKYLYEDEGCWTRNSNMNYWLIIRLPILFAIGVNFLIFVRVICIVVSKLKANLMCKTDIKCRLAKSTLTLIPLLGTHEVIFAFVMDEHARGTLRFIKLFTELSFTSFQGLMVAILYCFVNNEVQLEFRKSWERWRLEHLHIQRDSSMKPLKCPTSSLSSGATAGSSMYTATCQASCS

EC50 [µM]	SMILES
0.7 ± 0.42	C[C@@H]1NC(=O)[C@H](Cc2ccc(O)cc2)NC(=O)[C@H](CCC(N)=O)NC(=O)[C@H](Cc2c[nH]c3ccccc23)NC(=O)[C@H](Cc2ccccc2)NC(=O)C2(CCCCC2)NC(=O)[C@H]2CCCN2C(=O)[C@H](Cc2cncn2Cc2ccccc2)NC(=O)[C@H](CCC(=O)O)NC(=O)[C@H](Cc2c[nH]c3ccccc23)NC1=O [compound 15, cyclo(-Phe-Trp-Gln-Tyr-Ala-Trp-Glu-His(Bn)-^DPro-Chx-)] (cyclo(FWQYAWE[His(π-Bn)][dP][Ac6c]))
0.41	CC(C)C[C@@H]1NC(=O)[C@H](CCC(=O)O)NC(=O)[C@H](Cc2ccccc2)NC(=O)C2(CCCCC2)NC(=O)[C@H]2CCCN2C(=O)[C@H](Cc2c[nH]c3ccccc23)NC(=O)[C@H](CCC(=O)O)NC(=O)[C@H](Cc2c[nH]c3ccccc23)NC(=O)[C@H](C)NC(=O)[C@H](Cc2ccc(O)cc2)NC1=O [compound 16, cyclo(-Phe-Glu-Leu-Tyr-Ala-Trp-Glu-Trp-^DPro-Chx-)] (cyclo(FELYAWEW[dP][Ac6c]))
0.6 ± 0.29	C[C@@H]1NC(=O)[C@H](Cc2ccc(O)cc2)NC(=O)[C@H](CCC(N)=O)NC(=O)[C@H](Cc2c[nH]c3ccccc23)NC(=O)[C@H](Cc2ccccc2)NC(=O)C2(CCCCC2)NC(=O)[C@H]2CCCN2C(=O)[C@H](Cc2c[nH]c3ccccc23)NC(=O)[C@H](CCC(=O)O)NC(=O)[C@H](Cc2c[nH]c3ccccc23)NC1=O [compound 17, cyclo(-Phe-Trp-Gln-Tyr-Ala-Trp-Glu-Trp-^DPro-Chx-)] (cyclo(FWQYAWEW[dP][Ac6c]))
0.82 ± 0.55	C[C@@H]1NC(=O)[C@H](Cc2ccc(O)cc2)NC(=O)[C@H](CCC(N)=O)NC(=O)[C@H](Cc2c[nH]c3ccccc23)NC(=O)[C@H](Cc2ccccc2)NC(=O)C2(CCCCC2)NC(=O)[C@H]2CCCN2C(=O)[C@H](Cc2c[nH]c3ccc(O)cc23)NC(=O)[C@H](CCC(=O)O)NC(=O)[C@H](Cc2c[nH]c3ccccc23)NC1=O [compound 18, cyclo(-Phe-Trp-Gln-Tyr-Ala-Trp-Glu-Trp(5OH)-^DPro-Chx-)] (cyclo(FWQYAWE[Trp(5-OH)][dP][Ac6c]))
0.72 ± 0.38	C[C@@H]1NC(=O)[C@H](Cc2ccc(O)cc2)NC(=O)[C@H](CCC(N)=O)NC(=O)[C@H](Cc2cccnc2)NC(=O)[C@H](Cc2ccccc2)NC(=O)C2(CCCCC2)NC(=O)[C@H]2CCCN2C(=O)[C@H](CCCNC(=N)N)NC(=O)[C@H](CCC(=O)O)NC(=O)[C@H](Cc2c[nH]c3ccccc23)NC1=O [compound 19, cyclo(-Phe-3Pal-Gln-Tyr-Ala-Trp-Glu-Arg-^DPro-Chx-)] (cyclo(F[3Pal]QYAWER[dP][Ac6c]))
0.59 ± 0.35	CC(C)C[C@@H]1NC(=O)[C@H](Cc2c[nH]cn2)NC(=O)[C@H](Cc2ccccc2)NC(=O)C2(CCCCC2)NC(=O)[C@H]2CCCN2C(=O)[C@H](Cc2ccc(O)cc2)NC(=O)[C@H](CCC(=O)O)NC(=O)[C@H](Cc2c[nH]c3ccccc23)NC(=O)[C@H](C)NC(=O)[C@H](Cc2ccc(O)cc2)NC1=O [compound 20, cyclo(-Phe-His-Leu-Tyr-Ala-Trp-Glu-Tyr-^DPro-Chx-)] (cyclo(FHLYAWEY[dP][Ac6c]))
0.67 ± 0.28	C[C@@H]1NC(=O)[C@H](Cc2ccc(O)cc2)NC(=O)[C@H](CCC(N)=O)NC(=O)[C@H](Cc2ccc(N)cc2)NC(=O)[C@H](Cc2ccccc2)NC(=O)C2(CCCCC2)NC(=O)[C@H]2CCCN2C(=O)[C@H](CCCNC(=N)N)NC(=O)[C@H](CCC(=O)O)NC(=O)[C@H](Cc2c[nH]c3ccccc23)NC1=O [compound 21, cyclo(-Phe-Phe(4NH2)-Gln-Tyr-Ala-Trp-Glu-Arg-^DPro-Chx-)] (cyclo(F[Phe(4-NH2)]QYAWER[dP][Ac6c]))
0.72 ± 0.4	C[C@@H]1NC(=O)[C@H](Cc2ccc(O)cc2)NC(=O)[C@H](CCC(N)=O)NC(=O)[C@H](Cc2c[nH]c3ccccc23)NC(=O)[C@H](Cc2ccccc2)NC(=O)C2(CCCCC2)NC(=O)[C@H]2CCCN2C(=O)[C@H](Cc2ccc(OCc3ccccc3)cc2)NC(=O)[C@H](CCC(=O)O)NC(=O)[C@H](Cc2c[nH]c3ccccc23)NC1=O [compound 22, cyclo(-Phe-Trp-Gln-Tyr-Ala-Trp-Glu-Tyr(Bn)-^DPro-Chx-)] (cyclo(FWQYAWEY(Bn)[dP][Ac6c]))
0.67 ± 0.22	COc1ccc(C[C@@H]2NC(=O)[C@H](CCC(N)=O)NC(=O)[C@H](Cc3c[nH]c4ccccc34)NC(=O)[C@H](Cc3ccccc3)NC(=O)C3(CCCCC3)NC(=O)[C@H]3CCCN3C(=O)[C@H](CCCNC(=N)N)NC(=O)[C@H](CCC(=O)O)NC(=O)[C@H](Cc3c[nH]c4ccccc34)NC(=O)[C@H](C)NC2=O)cc1 [compound 23, cyclo(-Phe-Trp-Gln-Tyr(Me)-Ala-Trp-Glu-Arg-^DPro-Chx-)] (cyclo(FWQY(Me)AWER[dP][Ac6c]))
0.89 ± 0.51	C[C@@H]1NC(=O)[C@H](Cc2ccc(O)cc2)NC(=O)[C@H](CCC(N)=O)NC(=O)[C@H](Cc2c[nH]c3ccccc23)NC(=O)[C@H](Cc2ccccc2)NC(=O)C2(CCCCC2)NC(=O)[C@H]2CCCN2C(=O)[C@H](Cc2ccccc2)NC(=O)[C@H](CCC(=O)O)NC(=O)[C@H](Cc2c[nH]c3ccccc23)NC1=O [compound 24, cyclo(-Phe-Trp-Gln-Tyr-Ala-Trp-Glu-Phe-^DPro-Chx-)] (cyclo(FWQYAWEF[dP][Ac6c]))
0.94 ± 0.68	CC(C)C[C@@H]1NC(=O)[C@H](CCC(=O)O)NC(=O)[C@H](Cc2ccccc2)NC(=O)C2(CCCCC2)NC(=O)[C@H]2CCCN2C(=O)[C@H](Cc2c[nH]c3ccc(O)cc23)NC(=O)[C@H](CCC(=O)O)NC(=O)[C@H](Cc2c[nH]c3ccccc23)NC(=O)[C@H](C)NC(=O)[C@H](Cc2ccc(O)cc2)NC1=O [compound 25, cyclo(-Phe-Glu-Leu-Tyr-Ala-Trp-Glu-Trp(5OH)-^DPro-Chx-)] (cyclo(FELYAWE[Trp(5-OH)][dP][Ac6c]))
1 ± 0.5	CCCC1(CCC)NC(=O)[C@H]2CCCN2C(=O)[C@H](Cc2ccccc2)NC(=O)[C@H](CCC(=O)O)NC(=O)[C@H](Cc2c[nH]c3ccccc23)NC(=O)[C@H](C)NC(=O)[C@H](CC(C)C)NC(=O)[C@H](CC(C)C)NC(=O)[C@H](CCC(=O)O)NC(=O)[C@H](Cc2ccccc2)NC1=O [compound 26, cyclo(-Phe-Glu-Leu-Leu-Ala-Trp-Glu-Phe-^DPro-Dpg-)] (cyclo(FELLAWEF[dP][Dpg]))
0.58	C[C@@H]1NC(=O)[C@H](Cc2ccccc2)NC(=O)[C@H](CCC(N)=O)NC(=O)[C@H](Cc2c[nH]c3ccccc23)NC(=O)[C@H](Cc2ccccc2)NC(=O)C2(CCCCC2)NC(=O)[C@H]2CCCN2C(=O)[C@H](Cc2ccc(O)cc2)NC(=O)[C@H](CCC(=O)O)NC(=O)[C@H](Cc2c[nH]c3ccccc23)NC1=O [compound 27, cyclo(-Phe-Trp-Gln-Phe-Ala-Trp-Glu-Tyr-^DPro-Chx-)] (cyclo(FWQFAWEY[dP][Ac6c]))
1.2 ± 0.9	CC(C)C[C@@H]1NC(=O)[C@H](CCC(=O)O)NC(=O)[C@H](Cc2ccccc2)NC(=O)C2(CCCCC2)NC(=O)[C@H]2CCCN2C(=O)[C@H](Cc2ccc(O)cc2)NC(=O)[C@H](Cc2c[nH]c3ccc(O)cc23)NC(=O)[C@H](Cc2c[nH]c3ccccc23)NC(=O)[C@H](C)NC(=O)[C@H](Cc2ccc(O)cc2)NC1=O [compound 28, cyclo(-Phe-Glu-Leu-Tyr-Ala-Trp-Trp(5OH)-Tyr-^DPro-Chx-)] (cyclo(FELYAW[Trp(5-OH)]Y[dP][Ac6c]))
0.62	COc1ccc(C[C@@H]2NC(=O)[C@H](CC(C)C)NC(=O)[C@H](CCC(=O)O)NC(=O)[C@H](Cc3ccccc3)NC(=O)C3(CCCCC3)NC(=O)[C@H]3CCCN3C(=O)[C@H](Cc3ccc(O)cc3)NC(=O)[C@H](CCC(=O)O)NC(=O)[C@H](Cc3c[nH]c4ccccc34)NC(=O)[C@H](C)NC2=O)cc1 [compound 29, cyclo(-Phe-Glu-Leu-Tyr(Me)-Ala-Trp-Glu-Tyr-^DPro-Chx-)] (cyclo(FELY(Me)AWEY[dP][Ac6c]))

— patent publication US10730911B2, “Backbone-cyclized peptidomimetics with GLP-1R modulating activity” (POLYPHOR AG, priority 2015, dated 2020)
